Reference: PubChem BioAssay (NCI)
Values joined by “and” are separate entries in the source; they are usually repeats but may differ in a detail not shown here. Identical values can stand only once.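 Tested at 5 concentrations; 48 h exposure; 96-well plates; endpoints linearly interpolated, else capped at highest concentration. GI50 is the concentration that inhibits growth by half. TGI: concentration producing complete growth inhibition.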

What was measured:
Assay in all cases: growth of human tumour cells (NCI), 48 h
[1] = system: ACHN renal
[2] = system: M14 melanoma
[3] = system: EKVX NSCLC
[4] = system: KM12 colon
[5] = system: SK-MEL-5 melanoma
[6] = system: COLO 205 colon
[7] = system: UACC-257 melanoma
[8] = system: NCI-H460 lung
[9] = system: A549 NSCLC
[10] = system: RXF 393 renal
[11] = system: RPMI-8226 leukemia
[12] = system: UO-31 renal
[13] = system: SK-MEL-28 melanoma
[14] = system: UACC-62 melanoma
[15] = system: HL-60(TB) leukemia
[16] = system: M19-MEL melanoma
[17] = system: SN12C renal
[18] = system: SNB-78 CNS
[19] = system: HOP-18 NSCLC
[20] = system: OVCAR-8 ovarian
[21] = system: OVCAR-4 ovarian
[22] = system: SF-268 CNS
[23] = system: MOLT-4 leukemia
[24] = system: DLD-1 colon
[25] = system: OVCAR-3 ovarian
[26] = system: SNB-75 CNS
[27] = system: DMS 114 small cell lung
[28] = system: HCT-116 colon
[29] = system: SK-MEL-2 melanoma
[30] = system: U251 CNS
[31] = system: SF-295 CNS
[32] = system: IGROV1 ovarian
[33] = system: OVCAR-5 ovarian
[34] = system: K-562 leukemia
[35] = system: TK-10 renal
[36] = system: NCI-H522 lung
[37] = system: MALME-3M melanoma
[38] = system: DMS 273 small cell lung
[39] = system: LOX IMVI melanoma
[40] = system: SW-620 colon
[41] = system: NCI-H23 lung
[42] = system: 786-0 renal
[43] = system: XF 498 CNS
[44] = system: SF-539 CNS
[45] = system: LXFL 529 NSCLC
[46] = system: CAKI-1 renal
[47] = system: SNB-19 CNS
[48] = system: SR leukemia
[49] = system: HCT-15 colon
[50] = system: HOP-62 NSCLC
[51] = system: HCC-2998 colon
[52] = system: KM20L2 colon
[53] = system: NCI-H226 lung
[54] = system: A498 renal
[55] = system: CCRF-CEM leukemia
[56] = system: HT29 colon
[57] = system: HOP-92 NSCLC
[58] = system: SK-OV-3 ovarian
[59] = system: HS 578T breast

Structure (SMILES): COc1ccc(-c2c3ccccc3c(-c3ccc(OC)cc3)c3ccccc23)cc1
- TGI [1]: > 100 µM
- TGI [2]: > 100 µM
- TGI [3]: > 100 µM
- TGI [4]: > 100 µM
- TGI [5]: > 100 µM
- TGI [6]: > 100 µM
- TGI [7]: > 100 µM
- TGI [8]: > 100 µM
- TGI [9]: > 100 µM
- TGI [10]: > 100 µM
- TGI [11]: > 100 µM
- TGI [12]: > 100 µM
- TGI [13]: > 100 µM
- TGI [14]: > 100 µM
- TGI [15]: > 100 µM
- TGI [16]: > 100 µM
- TGI [17]: > 100 µM
- TGI [18]: > 100 µM
- TGI [19]: > 100 µM
- TGI [20]: > 100 µM
- TGI [21]: > 100 µM
- TGI [22]: > 100 µM
- TGI [23]: > 100 µM
- TGI [24]: > 100 µM
- TGI [25]: > 100 µM
- TGI [26]: 95.7 µM
- TGI [27]: > 100 µM
- TGI [28]: > 100 µM
- TGI [29]: > 100 µM
- TGI [30]: > 100 µM
- TGI [31]: > 100 µM
- TGI [32]: > 100 µM
- TGI [33]: > 100 µM
- TGI [34]: > 100 µM
- TGI [35]: > 100 µM
- TGI [36]: > 100 µM
- TGI [37]: > 100 µM
- TGI [38]: > 100 µM
- TGI [39]: > 100 µM
- TGI [40]: > 100 µM
- TGI [41]: > 100 µM
- TGI [42]: > 100 µM
- TGI [43]: > 100 µM
- TGI [44]: > 100 µM
- TGI [45]: > 100 µM
- TGI [46]: > 100 µM
- TGI [47]: > 100 µM
- TGI [48]: > 100 µM
- TGI [49]: > 100 µM
- TGI [50]: > 100 µM
- TGI [51]: > 100 µM
- TGI [52]: > 100 µM
- TGI [53]: > 100 µM
- TGI [54]: > 100 µM
- TGI [55]: > 100 µM
- TGI [56]: > 100 µM
- TGI [57]: > 100 µM
- TGI [58]: > 100 µM

Structure (SMILES): Cc1cc(Br)ccc1NC1=CC(=O)C(=O)c2ccccc21
- TGI [1]: > 100 µM
- TGI [2]: > 100 µM
- TGI [3]: > 100 µM
- TGI [4]: > 100 µM
- TGI [5]: 36.8 µM
- TGI [6]: > 100 µM
- TGI [7]: 39.4 µM
- TGI [8]: 78.2 µM
- TGI [9]: > 100 µM
- TGI [10]: 69.6 µM
- TGI [11]: > 100 µM
- TGI [12]: > 100 µM
- TGI [13]: > 100 µM
- TGI [14]: 36.1 µM
- TGI [15]: 38.5 µM
- TGI [16]: 29.5 µM
- TGI [17]: > 100 µM
- TGI [18]: > 100 µM
- TGI [19]: 57.1 µM
- TGI [20]: > 100 µM
- TGI [21]: 31.1 µM
- TGI [22]: > 100 µM
- TGI [23]: > 100 µM
- TGI [24]: > 100 µM
- TGI [25]: > 100 µM
- TGI [26]: > 100 µM
- TGI [27]: 45 µM
- TGI [28]: > 100 µM
- TGI [29]: > 100 µM
- TGI [30]: > 100 µM
- TGI [31]: > 100 µM
- TGI [32]: > 100 µM
- TGI [33]: > 100 µM
- TGI [34]: > 100 µM
- TGI [35]: > 100 µM
- TGI [36]: > 100 µM
- TGI [37]: 53 µM
- TGI [38]: > 100 µM
- TGI [39]: 48.5 µM
- TGI [40]: 89.1 µM
- TGI [41]: 32.4 µM
- TGI [42]: > 100 µM
- TGI [43]: 89.1 µM
- TGI [44]: > 100 µM
- TGI [45]: > 100 µM
- TGI [46]: 53.1 µM
- TGI [47]: > 100 µM
- TGI [48]: > 100 µM
- TGI [49]: > 100 µM
- TGI [50]: > 100 µM
- TGI [51]: > 100 µM
- TGI [52]: > 100 µM
- TGI [53]: > 100 µM
- TGI [54]: > 100 µM
- TGI [55]: > 100 µM
- TGI [56]: > 100 µM
- TGI [58]: > 100 µM

Structure (SMILES): CCN(CC)CCCNc1ccc2ncn3c4ccc(O)cc4c(=O)c1c23
- GI50 [1]: 0.389 µM
- TGI [1]: 3.78 µM
- TGI [2]: 16 µM
- GI50 [3]: 5.51 µM
- TGI [3]: 19 µM
- GI50 [4]: 2.6 µM
- TGI [4]: 19.5 µM
- TGI [5]: 18.3 µM
- TGI [6]: 19.4 µM
- TGI [7]: 23.8 µM
- GI50 [8]: 0.0627 µM
- TGI [8]: 5.78 µM
- GI50 [9]: 0.336 µM
- TGI [9]: 6.94 µM
- GI50 [10]: 0.902 µM
- TGI [10]: 6.35 µM and 2.69 µM
- GI50 [11]: 1.45 µM
- TGI [11]: 21.8 µM
- GI50 [12]: 0.295 µM
- TGI [12]: 13.4 µM
- TGI [13]: 25.2 µM
- GI50 [15]: 0.17 µM
- TGI [15]: 4.49 µM and 1.62 µM
- TGI [16]: 21.3 µM
- GI50 [17]: 2.78 µM
- TGI [17]: 14.7 µM
- TGI [18]: 28.8 µM
- TGI [19]: 34.6 µM
- GI50 [20]: 0.669 µM
- TGI [20]: 13.4 µM
- TGI [21]: 11.9 µM
- GI50 [22]: 2.66 µM
- TGI [22]: 17.5 µM
- TGI [23]: 0.255 µM and 0.52 µM
- TGI [24]: 16.1 µM
- TGI [25]: 22.2 µM
- GI50 [26]: 2.3 µM
- TGI [26]: 8.49 µM and 8.39 µM
- TGI [27]: 23.8 µM
- GI50 [28]: 0.359 µM
- TGI [28]: 9.75 µM and 14.1 µM
- TGI [29]: 19 µM
- GI50 [30]: 2.05 µM
- TGI [30]: 17.7 µM
- GI50 [31]: 1.83 µM
- TGI [31]: 15.9 µM
- GI50 [32]: 0.265 µM
- TGI [32]: 8.58 µM and 18.6 µM
- GI50 [33]: 4.39 µM
- TGI [33]: 10.7 µM
- GI50 [34]: 1.3 µM
- TGI [34]: 20.5 µM
- GI50 [35]: 2.23 µM
- TGI [35]: 21.2 µM
- GI50 [36]: 0.218 µM
- TGI [36]: 4.44 µM and 4.68 µM
- GI50 [37]: 4.17 µM
- TGI [37]: 19.1 µM
- TGI [38]: 14.8 µM
- GI50 [39]: 0.95 µM
- TGI [39]: 2.37 µM and 2.56 µM
- GI50 [40]: 0.832 µM
- TGI [40]: 15.8 µM
- GI50 [41]: 0.784 µM
- TGI [41]: 14.5 µM
- GI50 [42]: 0.802 µM
- TGI [42]: 14.5 µM
- TGI [43]: 14.2 µM
- GI50 [44]: 4.51 µM
- TGI [44]: 17.2 µM
- TGI [45]: 18.5 µM
- GI50 [46]: 0.205 µM
- TGI [46]: 2.48 µM and 2.36 µM
- GI50 [47]: 0.493 µM
- TGI [47]: 20.2 µM
- GI50 [48]: 0.124 µM
- TGI [48]: 2.86 µM and 1.53 µM
- GI50 [49]: 2.03 µM
- TGI [49]: 15.7 µM
- GI50 [50]: 1.25 µM
- TGI [50]: 19.2 µM
- GI50 [51]: 3.59 µM
- TGI [51]: 17.8 µM
- TGI [59]: 7.28 µM
- TGI [52]: 18.2 µM
- TGI [53]: 3.5 µM
- GI50 [54]: 0.6 µM
- TGI [54]: 17.8 µM
- GI50 [56]: 2.32 µM
- TGI [56]: 7.78 µM
- GI50 [57]: 1.28 µM
- TGI [57]: 7.57 µM and 12.5 µM
- GI50 [58]: 0.369 µM
- TGI [58]: 17.8 µM

Structure (SMILES): CCN(CC)C(=O)c1c(Cl)cc(N(CC)CC)oc1=O
- TGI [1]: > 100 µM
- TGI [2]: > 100 µM
- TGI [3]: > 100 µM
- TGI [4]: > 100 µM
- TGI [6]: > 100 µM
- TGI [7]: > 100 µM
- TGI [8]: > 100 µM
- TGI [9]: > 100 µM
- TGI [10]: > 100 µM
- TGI [11]: > 100 µM
- TGI [12]: > 100 µM
- TGI [13]: > 100 µM
- TGI [14]: > 100 µM
- TGI [15]: > 100 µM
- TGI [16]: > 100 µM
- TGI [17]: > 100 µM
- TGI [18]: > 100 µM
- TGI [19]: > 100 µM
- TGI [20]: > 100 µM
- TGI [21]: > 100 µM
- TGI [22]: > 100 µM
- TGI [23]: > 100 µM
- TGI [24]: > 100 µM
- TGI [25]: > 100 µM
- TGI [26]: > 100 µM
- TGI [27]: > 100 µM
- TGI [28]: > 100 µM
- TGI [29]: > 100 µM
- TGI [30]: > 100 µM
- TGI [31]: > 100 µM
- TGI [32]: > 100 µM
- TGI [34]: > 100 µM
- TGI [35]: > 100 µM
- TGI [36]: > 100 µM
- TGI [37]: > 100 µM
- TGI [38]: > 100 µM
- TGI [39]: > 100 µM
- TGI [40]: > 100 µM
- TGI [41]: > 100 µM
- TGI [42]: > 100 µM
- TGI [43]: > 100 µM
- TGI [44]: > 100 µM
- TGI [45]: > 100 µM
- TGI [47]: > 100 µM
- TGI [48]: > 100 µM
- TGI [49]: > 100 µM
- TGI [50]: > 100 µM
- TGI [51]: > 100 µM
- TGI [52]: > 100 µM
- TGI [53]: > 100 µM
- TGI [54]: > 100 µM
- TGI [55]: > 100 µM
- TGI [56]: > 100 µM
- TGI [57]: > 100 µM
- TGI [58]: > 100 µM
